What was measured:
[1] = target: T1, human pregnane X receptor (hPXR) (Homo sapiens, UniProt O75469); assay: PXR-mediated CYP3A4 promoter luciferase reporter assay in HepG2 cells; format: cell-based; details: 24 h, vs DMSO; for induction in the PXR promoter activity: individual flavonoids 10 μM
T1 construct: expressed in transfected cells; host or cells: HepG2
T1 sequence (O75469 1-434): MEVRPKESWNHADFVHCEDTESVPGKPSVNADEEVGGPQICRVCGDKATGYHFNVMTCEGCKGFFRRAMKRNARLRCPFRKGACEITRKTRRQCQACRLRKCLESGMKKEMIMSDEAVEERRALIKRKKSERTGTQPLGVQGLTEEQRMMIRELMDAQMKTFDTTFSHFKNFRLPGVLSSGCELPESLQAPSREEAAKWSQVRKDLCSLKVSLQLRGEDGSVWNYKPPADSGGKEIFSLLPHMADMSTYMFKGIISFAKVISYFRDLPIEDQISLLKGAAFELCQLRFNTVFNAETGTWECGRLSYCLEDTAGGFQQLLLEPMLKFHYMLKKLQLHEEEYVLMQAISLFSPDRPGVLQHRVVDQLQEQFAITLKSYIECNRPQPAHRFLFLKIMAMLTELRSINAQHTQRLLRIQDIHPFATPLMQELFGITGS
Protocol: The human hepatocarcinoma cell line HepG2 was purchased from the […] (Manassas, VA, USA) and maintained in Dulbecco’s modified Eagle’s essential medium (DMEM) containing 10% fetal bovine serum, 1% nonessential amino acids, 1% GlutaMAX, and 1% antibiotics/antimycotics in a 5% CO2 atmosphere at 37 °C.
The expression plasmid for human constitutive androstane receptor (hCAR; pcDNA3-CAR) and pGL3-CYP2B6 luciferase construct were kindly provided by Dr. Hongbing Wang (University of Maryland, College Park, MD, USA). The plasmid for human pregnane X receptor (hPXR; pcDNA3-PXR) and pGL3-CYP3A4 luciferase construct were generous gifts from Masahiko Negishi (National Institutes of Health, Bethesda, MD, USA). HepG2 cells were seeded at a density of 1.5 × 10^5 cells/well into a 24-well plate. On the next day, the cells were transfected with 0.25 μg of either pcDNA3-CAR or pcDNA3-PXR and 0.25 μg of promoter luciferase plasmid (i.e., either pGL3-CYP2B6 or pGL3-CYP3A4) using Lipofectamine 2000 (Invitrogen, Carlsbad, CA, USA) according to the manufacturer’s instructions. To normalize the transfection efficiency, the pRL-TK plasmid (0.25 μg/well; Promega), which contains cDNA encoding Renilla luciferase, was cotransfected. The transfected cells were grown for 24 h, treated with various test materials, and incubated for an additional 24 h. The luciferase activities in the cell lysates were measured using the dual luciferase assay system (Promega) with a SpectraMax i3x (Molecular Devices, San Jose, CA, USA). Data are reported as a relative luciferase activity, which is the firefly luciferase reading divided by the Renilla luciferase reading.

CYP2D1 = assay: hepatic mRNA expression (qPCR) in OVX rats after 5-week oral administration; format: in vivo; details: OVX rat liver; E2 0.5 mg/kg/day oral, 5 weeks; vs vehicle control
Protocol: (§1) Rats were bilaterally ovariectomized under 1.5–3% isoflurane anesthesia as described previously. […] Administration via forced gastric gavage was performed to ensure the exact amount of test compounds be dosed to each animal. […] Animals were weighed daily and dosage was changed weekly according to weight gain. Animals were euthanized by carbon dioxide inhalation to minimize aversion or distress. Liver microsomal fractions were prepared from livers of OVX rats using differential centrifugation as described previously.
(§2) The total RNA was isolated from homogenized rat liver tissue using a Nucleospin RNA/Protein kit (Macherey-Nagel, Düren, Germany) according to the manufacturer’s manual. The cDNA was synthesized from the total RNA (2 μg) using oligo (dT) and M-MLV reverse transcriptase (Promega, Madison, WI, USA). A qPCR analysis was performed to determine the mRNA levels of both hepatic CYP and UGT isozymes on an ABI Prism 7500 Sequence Detection System (Applied Biosystems, Foster City, CA, USA) using SYBR Green PCR Master Mix (Toyobo, Osaka, Japan) and a gene-specific primer set (Table S1 for primer sequences).

UGT2B1 = assay: as above; format: in vivo; details: OVX rat liver; E2 0.5 mg/kg/day and both doses of OFIE (250, 500 mg/kg/day) oral, 5 weeks; range over the groups
Protocol: as §1, §2

[2] = target: T2, human constitutive androstane receptor (hCAR) (Homo sapiens, UniProt Q14994); assay: CAR-mediated CYP2B6 promoter luciferase reporter assay in HepG2 cells; format: cell-based; details: E2, concentration not given, 24 h, vs DMSO
T2 construct: expressed in transfected cells; host or cells: HepG2
T2 sequence (Q14994 1-352): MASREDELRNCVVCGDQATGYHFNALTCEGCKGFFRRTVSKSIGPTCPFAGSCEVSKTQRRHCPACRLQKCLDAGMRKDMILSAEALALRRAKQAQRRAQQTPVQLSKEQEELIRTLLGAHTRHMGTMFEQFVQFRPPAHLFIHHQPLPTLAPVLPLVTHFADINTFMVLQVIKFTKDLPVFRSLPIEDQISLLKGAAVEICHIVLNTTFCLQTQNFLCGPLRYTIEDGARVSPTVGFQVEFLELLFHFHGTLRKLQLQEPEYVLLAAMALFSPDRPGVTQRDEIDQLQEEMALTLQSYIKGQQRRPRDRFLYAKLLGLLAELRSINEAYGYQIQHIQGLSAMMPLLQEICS

CYP2B1 [3] = assay: hepatic mRNA expression (qPCR) in OVX rats after 5-week oral administration; format: in vivo; details: OVX rat liver; E2 0.5 mg/kg/day oral, 5 weeks; vs vehicle control
Protocol: (§6) After 14 days of endogenous hormonal decline, rats were randomly divided into several groups (n = 6 per group) and subjected to oral administration of olive oil (control), E2 (0.5 mg/kg/day, positive control) or OFIE (250 and 500 mg/kg/day) via gastric gavage for 5 weeks. […] Administration via forced gastric gavage was performed to ensure the exact amount of test compounds be dosed to each animal. […] Animals were weighed daily and dosage was changed weekly according to weight gain.
(§7) The total RNA was isolated from homogenized rat liver tissue using a Nucleospin RNA/Protein kit (Macherey-Nagel, Düren, Germany) according to the manufacturer’s manual. The cDNA was synthesized from the total RNA (2 μg) using oligo (dT) and M-MLV reverse transcriptase (Promega, Madison, WI, USA). A qPCR analysis was performed to determine the mRNA levels of both hepatic CYP and UGT isozymes on an ABI Prism 7500 Sequence Detection System (Applied Biosystems, Foster City, CA, USA) using SYBR Green PCR Master Mix (Toyobo, Osaka, Japan) and a gene-specific primer set (Table S1 for primer sequences). The ABI 7500 Software (v2.0.6, Foster City, CA, USA) was used for the estimation of CT. The 2^−ΔΔCt method was applied for relative quantification. […] The results were expressed as fold change when the gene expression level in the vehicle control-treated sample was set as 1.

CYP2B1 [4] = assay: ex vivo activity assay in liver microsomes of orally treated OVX rats; parameters: species or system rat; details: E2 0.5 mg/kg/day oral, 5 weeks, control group set as 1
Protocol: (§3) Rats were bilaterally ovariectomized under 1.5-3% isoflurane anesthesia as described previously. […] Administration via forced gastric gavage was performed to ensure the exact amount of test compounds be dosed to each animal. […] Animals were weighed daily and dosage was changed weekly according to weight gain. Animals were euthanized by carbon dioxide inhalation to minimize aversion or distress. Liver microsomal fractions were prepared from livers of OVX rats using differential centrifugation as described previously. […] The HPLC system (Agilent, Santa Clara, CA, USA) consisted of an Agilent 1200 binary pump, DAD, and Agilent 1260 autosampler. A Kinetex C18 reverse-phase column (5 μm, 4.6 × 150 mm) (Phenomenex, Torrance, CA, USA) protected by a KrudKatcher Ultra HPLC in-line filter (Phenomenex) was used for separation. HPLC conditions to determine the isozyme-specific metabolites and major constituents in OFIE are described in the Supplementary Materials. LC-electrospray (ESI)-tandem mass spectrometry (MS^2) analysis was employed to detect glucuronide products. An Linear Trap Quadropole (LTQ) linear ion trap mass spectrometer (Thermo Scientific, Waltham, MA, USA) with an ESI source was coupled with an Agilent 1200 HPLC system.

UGT isoforms = assay: as above; parameters: species or system rat; details: E2 0.5 mg/kg/day oral, 5 weeks
Protocol: as §3

CYP3A1 [5] = assay: hepatic mRNA expression (qPCR) in OVX rats after 5-week oral administration; format: in vivo; details: OVX rat liver; E2 0.5 mg/kg/day oral, 5 weeks; vs vehicle control
Protocol: as §6, §7

CYP1A2 = target: T3, CYP1A2 (Homo sapiens, UniProt P05177); assay: CYP inhibition assay in human liver microsomes; format: in vitro ADME; details: pooled human liver microsomes, individual constituents 10 μM; for inhibition at 60 min, 10 μM: pH 7.4
T3 construct: tissue Corning 452117; host or cells: pooled human liver microsomes (150 donors)
T3 sequence (P05177 1-516): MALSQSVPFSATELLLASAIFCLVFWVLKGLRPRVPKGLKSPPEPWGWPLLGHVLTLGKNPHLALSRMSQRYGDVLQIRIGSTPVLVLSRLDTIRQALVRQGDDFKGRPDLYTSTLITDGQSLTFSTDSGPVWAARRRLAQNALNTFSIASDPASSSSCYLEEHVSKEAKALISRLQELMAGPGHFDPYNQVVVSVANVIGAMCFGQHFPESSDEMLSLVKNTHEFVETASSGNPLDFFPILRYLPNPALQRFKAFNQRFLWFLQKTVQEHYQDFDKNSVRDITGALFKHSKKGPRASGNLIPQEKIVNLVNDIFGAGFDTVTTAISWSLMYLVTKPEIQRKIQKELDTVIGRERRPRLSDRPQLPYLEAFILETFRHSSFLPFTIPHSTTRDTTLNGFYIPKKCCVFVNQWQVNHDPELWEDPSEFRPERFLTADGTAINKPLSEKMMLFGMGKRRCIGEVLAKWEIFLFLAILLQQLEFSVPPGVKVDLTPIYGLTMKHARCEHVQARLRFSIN
Protocol: (§4) CYP-mediated metabolite formation from a substrate (200 μM each) or the formation of glucuronide conjugates from the UGT isozyme-specific substrate (200 μM each) was monitored to determine the isozyme activity. Typical incubation was performed with rat (1 mg/mL) or human (0.5 mg/mL) liver microsomes in the presence of an appropriate cofactor in a buffer system (pH 7.4) at 37 °C for 60 min as described previously.
The HPLC system (Agilent, Santa Clara, CA, USA) consisted of an Agilent 1200 binary pump, DAD, and Agilent 1260 autosampler. A Kinetex C18 reverse-phase column (5 μm, 4.6 × 150 mm) (Phenomenex, Torrance, CA, USA) protected by a KrudKatcher Ultra HPLC in-line filter (Phenomenex) was used for separation. […] LC-electrospray (ESI)-tandem mass spectrometry (MS^2) analysis was employed to detect glucuronide products. An Linear Trap Quadropole (LTQ) linear ion trap mass spectrometer (Thermo Scientific, Waltham, MA, USA) with an ESI source was coupled with an Agilent 1200 HPLC system.

CYP2C11 = assay: CYP inhibition assay in OVX rat liver microsomes; format: in vitro ADME; details: for inhibition at 60 min, 10 μM: female, liver microsomes from ovariectomized (OVX) rats, pH 7.4, individual constituents 10 μM
Protocol: as §4
(§5) The HPLC system (Agilent, Santa Clara, CA, USA) consisted of an Agilent 1200 binary pump, DAD, and Agilent 1260 autosampler. A Kinetex C18 reverse-phase column (5 μm, 4.6 × 150 mm) (Phenomenex, Torrance, CA, USA) protected by a KrudKatcher Ultra HPLC in-line filter (Phenomenex) was used for separation. HPLC conditions to determine the isozyme-specific metabolites and major constituents in OFIE are described in the Supplementary Materials. LC-electrospray (ESI)-tandem mass spectrometry (MS^2) analysis was employed to detect glucuronide products. An Linear Trap Quadropole (LTQ) linear ion trap mass spectrometer (Thermo Scientific, Waltham, MA, USA) with an ESI source was coupled with an Agilent 1200 HPLC system.

CYP3A4 = target: T4, CYP3A4 (Homo sapiens, UniProt P08684); parameters: method as in earlier work; details: range given jointly for quercetin and kaempferol on CYP1A2 and CYP3A4; Von Moltke et al.; read-out: IC50, inhibition of CYP3A4; cited from earlier work
T4 construct: tissue Corning 452117; host or cells: pooled human liver microsomes (150 donors)

CYP3A1 [6] = assay: CYP inhibition assay in OVX rat liver microsomes; format: in vitro ADME; details: female, liver microsomes from ovariectomized (OVX) rats, pH 7.4, individual constituents 10 μM
Protocol: as §4, §5

T4 sequence (P08684 whole entry): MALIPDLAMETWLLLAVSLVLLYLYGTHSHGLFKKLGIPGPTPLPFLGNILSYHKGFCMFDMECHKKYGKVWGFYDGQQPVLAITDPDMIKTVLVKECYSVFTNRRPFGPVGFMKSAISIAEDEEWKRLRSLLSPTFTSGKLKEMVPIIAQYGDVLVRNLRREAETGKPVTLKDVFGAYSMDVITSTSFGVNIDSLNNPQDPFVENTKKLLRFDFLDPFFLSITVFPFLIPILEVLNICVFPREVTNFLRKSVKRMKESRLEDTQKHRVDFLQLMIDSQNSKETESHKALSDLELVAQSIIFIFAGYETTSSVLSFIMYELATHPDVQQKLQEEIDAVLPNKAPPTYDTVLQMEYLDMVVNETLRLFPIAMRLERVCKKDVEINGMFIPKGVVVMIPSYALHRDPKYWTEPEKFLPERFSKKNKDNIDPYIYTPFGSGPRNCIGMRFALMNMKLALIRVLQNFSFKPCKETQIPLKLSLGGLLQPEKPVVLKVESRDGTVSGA

Structure (SMILES): C[C@]12CC[C@@H]3c4ccc(O)cc4CC[C@H]3[C@@H]1CC[C@@H]2O [E2, 17β-Estradiol]
- PXR-mediated CYP3A4 reporter activity ([1]; E2, concentration not given): did not alter
- increase in mRNA expression of CYP2D1 (CYP2D1): 2.6 fold
- increased expression of UGT2B1 mRNA (UGT2B1): 3.8–6.5 folds
- increase in CAR-mediated CYP2B6 reporter activity [2]: 4.8 fold
- increase in mRNA expression of CYP2B1 (CYP2B1 [3]): 7.7 fold
- increase in activity of CYP2B1 (CYP2B1 [4]): 2.7 fold
- change in activities of all UGT isoforms examined (UGT isoforms): no changes
- increase in mRNA expression of CYP3A1 (CYP3A1 [5]): 12 fold

Structure (SMILES): COc1cc(-c2oc3cc(O)cc(O)c3c(=O)c2O)ccc1O [isorhamnetin]
- inhibition at 60 min, 10 μM (CYP1A2): 40%
- inhibition of rat CYP2C11 activity (CYP2C11; individual constituents 10 μM): did not result in a significant inhibition

Structure (SMILES): O=c1c(O)c(-c2ccc(O)cc2)oc2cc(O)cc(O)c12 [kaempferol]
- IC50 (CYP3A4): 10 to 16 µM
- inhibition at 60 min, 10 μM (CYP3A1 [6]): 20%
- inhibition at 60 min, 10 μM (CYP2C11): 10%

Structure (SMILES): COc1cc(-c2oc3cc(O)cc(O)c3c(=O)c2O[C@@H]2O[C@H](CO[C@@H]3O[C@@H](C)[C@H](O)[C@@H](O)[C@H]3O)[C@@H](O)[C@H](O)[C@H]2O)ccc1O [narcissin]
- induction in the PXR promoter activity [1]: significant induction
- inhibition of human CYP1A2 activity (CYP1A2): did not significantly inhibit
- inhibition at 60 min, 10 μM (CYP3A1 [6]): 10%

Structure (SMILES): O=c1c(O)c(-c2ccc(O)c(O)c2)oc2cc(O)cc(O)c12 [quercetin]
- inhibition at 60 min, 10 μM (CYP1A2): 31%
- inhibition at 60 min, 10 μM (CYP3A1 [6]): 10%
- inhibition at 60 min, 10 μM (CYP2C11): 18%

Structure (SMILES): C[C@@H]1O[C@@H](OC[C@H]2O[C@@H](Oc3c(-c4ccc(O)c(O)c4)oc4cc(O)cc(O)c4c3=O)[C@H](O)[C@@H](O)[C@@H]2O)[C@H](O)[C@H](O)[C@H]1O [rutin]
- induction in the PXR promoter activity [1]: significant induction
